6 molecules from publication PMC5000588, “A Female-Biased Odorant Receptor from Apolygus lucorum (Meyer-Dür) Tuned to Some Plant Odors” (International Journal of Molecular Sciences, 2016) can be followed below.

The first assay deals with T1, AlucOR46/Orco (Apolygus lucorum, UniProt A0A1Q1NIJ3).
T1 construct: gene OR39; full-length ORF of AlucOR46 (1185 bp, 394 residues) in pT7Ts, cRNA co-injected with AlucOrco cRNA into Xenopus oocytes; OR/Orco heteromeric channel; with Odorant receptor coreceptor
T1 sequence (A0A1Q1NIJ3 1-394): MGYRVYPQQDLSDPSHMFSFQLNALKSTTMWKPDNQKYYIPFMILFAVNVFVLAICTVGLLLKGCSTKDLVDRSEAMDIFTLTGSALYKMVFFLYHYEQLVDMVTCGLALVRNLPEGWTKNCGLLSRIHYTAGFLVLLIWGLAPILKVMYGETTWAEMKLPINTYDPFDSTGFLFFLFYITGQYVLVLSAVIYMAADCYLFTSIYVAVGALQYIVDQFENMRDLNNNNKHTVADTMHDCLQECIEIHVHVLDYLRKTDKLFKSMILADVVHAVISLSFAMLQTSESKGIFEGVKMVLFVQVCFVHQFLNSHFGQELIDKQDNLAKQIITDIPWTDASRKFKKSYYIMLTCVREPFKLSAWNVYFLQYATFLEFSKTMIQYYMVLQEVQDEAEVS
T1 sequence (V9TQK7 1-471 partner): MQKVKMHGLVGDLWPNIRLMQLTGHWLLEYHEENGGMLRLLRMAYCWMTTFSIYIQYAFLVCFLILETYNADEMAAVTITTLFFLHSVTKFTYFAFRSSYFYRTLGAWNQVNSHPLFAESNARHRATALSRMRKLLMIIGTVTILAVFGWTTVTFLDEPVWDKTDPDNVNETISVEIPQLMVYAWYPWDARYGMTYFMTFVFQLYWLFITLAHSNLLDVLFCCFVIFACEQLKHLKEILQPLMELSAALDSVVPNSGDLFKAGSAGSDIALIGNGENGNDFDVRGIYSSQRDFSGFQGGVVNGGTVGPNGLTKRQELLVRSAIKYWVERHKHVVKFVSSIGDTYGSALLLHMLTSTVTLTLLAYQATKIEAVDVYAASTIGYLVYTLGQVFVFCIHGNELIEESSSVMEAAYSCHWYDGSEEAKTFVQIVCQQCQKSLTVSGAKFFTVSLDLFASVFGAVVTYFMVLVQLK
Kind of assay: two-electrode voltage clamp, Xenopus oocytes, inward current at a single concentration. Type of assay: cell-based. Conditions: agonist; 10^−4 M odorant; coexpressed with AlucOrco; 1× Ringer's buffer pH 7.6. (Two-electrode voltage clamp is typically applied to oocytes expressing channels or transporters.)
Regarding `C=C(C)[C@@H]1CC=C(C)CC1` [(S)-(−)-Limonene], the “inward current response at 10^-4 M” value is “Only six compounds: (S)-(−)-Limonene, (R)-(+)-Limonene”.

Regarding `C=C(C)[C@H]1CC=C(C)CC1` [(R)-(+)-Limonene], the “inward current response at 10^-4 M” value was “Only six compounds: (S)-(−)-Limonene, (R)-(+)-Limonene”.

For a further assay, the target named is T1, AlucOR46/Orco. The assay can be described thus: two-electrode voltage clamp, Xenopus oocytes, inward current dose-response. Type of assay: cell-based.
Details: not given
An excerpt: two-electrode voltage clamp, Xenopus oocytes, inward current dose-response on AlucOR46/Orco
What is called EC50 is the concentration needed to bring the measured effect to its halfway point. Low readings indicate an effect from little substance, high ones a need for much substance. `CCC/C=C/C=O` [(E)-2-Hexenal] gave an EC50 of 37.1 µM.

In turn, `CCCCCCCO` [1-Heptanol] came in with an EC50 of 13.8 µM.

Turning to `CC/C=C/CCO` [(E)-3-Hexenol], the EC50 is 25.3 µM.

On to `CC1(C)[C@H]2CC=C(CO)[C@@H]1C2` [(1R)-(−)-Myrtenol], for which the EC50 is 74.4 µM.
